Here are results for 8 compounds from patent publication US20250090437A1, “COSMETIC COMPOUNDING AGENT, COSMETIC AND PRODUCTION METHOD THEREOF” (MIYOSHI OIL & FAT CO., LTD., priority 2019, published 2025).

Data set [1] in a line: Water retention property and adherability with respect to healthy hair. More on the design: species or system human. To be noted: for Adherability to the healthy hair: compared to the compounds of comparative examples B1 to B8. The procedure:
In the following evaluations, a human black hair produced by Beaulax Co., Ltd was used as a healthy hair. A damaged hair was prepared by repeatedly having the healthy hair permed and bleached three times.
An 80 wt % aqueous solution of each of the compounds B1 to B26 (content in terms of anhydride in the cases of the compounds B1 to B23) was prepared, followed by using a Karl Fischer moisture meter (KF-200 by Mitsubishi Chemical Analytech Co., Ltd.) to confirm that a moisture rate was 20.0 wt %. As a healthy hair, there was used a chemically untreated healthy hair (human black hair by Beaulax Co., Ltd). The moisture rate (pre-test moisture rate A) of the hair was measured by an infrared moisture meter (by Kett Electric Laboratory).
After immersion, the hair was taken out, and KimWipes were then used to wipe off the compound until a change in weight was no longer observed, followed by measuring the weight of the hair (post-test hair weight B). The hair from which the compound had been wiped off was then placed into a thermo-hygrostat set to 40° C. and 35 to 40% RH. A moisture rate after 24 hours (post-test moisture rate B) was then measured, followed by calculating a rate of reduction in moisture with the following formula. Likewise, instead of the 80 wt % aqueous solution, evaluation was also performed in a similar manner using only an ion-exchange water (comparative example B4).
Further, an adhesion rate of the compound adhering to the hair was calculated with the following formula. […]

Data set [2] is described as follows: Sensory evaluation on healthy hair after using shampoo agent containing organic ammonium salt. More on the design: species or system human. Particulars: shampoo agent containing 3.0% by mass of the compound; treated 10 times. The procedure:
(§1) Next, the mixture was cooled to a temperature of 30° C. or lower, and a purified water of an evaporated amount was then added thereto so that the whole hair treatment composition would be 100% by mass, followed by uniformly mixing them so as to obtain a hair treatment composition(s). The pH level of the hair treatment composition was adjusted to pH 6.0 by adding a citric acid or sodium hydroxide.
About 5 g of the healthy hair was taken and dipped into 350 ml of a seven-time dilute aqueous solution of each of the abovementioned hair treatment compositions (shampoo agents) at 35 to 40° C. so as to be washed. The healthy hair was then subjected to a rinsing treatment five times using 500 ml of a warm water of 35 to 40° C., followed by drying the same at 80° C., and then performing air drying at 25° C. Such series of treatment involving hair washing, rinsing and drying was repeated 10 times to then evaluate a cohesiveness of the hair, a moist feeling of the hair, a gloss of the hair, a surface smoothness of the hair and a non-stickiness on the surface of the hair, after performing air drying.

The nature of data set [3]: Sensory evaluation on damaged hair after using shampoo agent containing organic ammonium salt. Particulars: shampoo agent containing the compound; treated 10 times. The arrangement: species or system human. The procedure: as §1
The damaged hair was repeatedly treated 10 times in a similar manner as 3-1; evaluated were a cohesiveness of the hair, surface smoothness of the hair and waviness of the hair after performing air drying.

A short description of data set [4]: Sensory evaluation on healthy hair after using conditioner containing organic ammonium salt. More on the design: species or system human. Particulars: conditioner containing 3.0% by mass of the compound. The procedure: Here, 4.5% by mass of a stearyl alcohol (KALCOL 8688 by Kao Corporation), 2.0% by mass of a behenyl alcohol (KALCOL 220-80 by Kao Corporation) and 0.5% by mass of a phenoxyethanol (Hisolve EPH by TOHO Chemical Industry Co., Ltd.) were mixed together and heated to 75° C. to obtain a liquid A. Further, 3.0% by mass of a behentrimonium chloride (CATINAL DC-80 by TOHO Chemical Industry Co., Ltd.), 5.0% by mass of dipropylene glycol and 3.0% by mass of each of the compounds B11, B23, B26, B27 and B28 (content in terms of anhydride in the cases of the compounds B11 and B23) were added together, followed by adding a purified water thereto, and then melting them at 80° C., thus obtaining a liquid B. The liquid B was then gradually added to the liquid A, and stirring was performed at 75° C. for 20 min. Next, the mixture was cooled to a temperature of 40° C. or lower, and a purified water of an evaporated amount was then added thereto so that the whole hair treatment composition would be 100% by mass, followed by uniformly mixing them so as to obtain a hair treatment composition(s).
About 5 g of the healthy hair was dipped into and kept immersed in 150 g of a seven-time dilute aqueous solution of each of the abovementioned hair treatment compositions (conditioners) at 40° C. for 30 min. […] After air drying, a combing capability, cohesiveness and non-stickiness of the hair were evaluated.

Data set [5] can be described thus: Surface resistance measurement of organic ammonium salt. To be noted: 0.7 g applied to polyurethane artificial leather; dried, coating in solid state.
Data set [6] in a line: Sensory evaluation on healthy hair after using organic ammonium salt. More on the design: species or system human. Particulars: compared to the compounds of the comparative examples. The procedure: (§2) Here, an 80 wt % aqueous solution(s) of each of the compounds B11, B12, B23, B26 and B27 (content in terms of anhydride in the cases of the compounds B11, B12 and B23) were prepared and used as samples. Next, one minute was spent in evenly applying 10.0 g of each sample to a bundle of the healthy hairs weighing about 10 g, using a brush; the bundle of the healthy hairs was then left for 5 min. After leaving it for 5 min, the bundle of the healthy hairs was rinsed with a hot water of 40° C. for 30 sec, and evaluated was a finger-combing capability at the time of performing washing. The hair bundle that had been rinsed was then dried with a towel and further subjected to air drying for a day, followed by evaluating items such as flexibility, finger-combing capability, texture, elasticity/resilience (feeling by bare hands), volume increase (visual evaluation), cohesiveness, moist feeling, surface smoothness, non-stickiness (feeling by bare hands) and gloss (visual evaluation), from the perspective of superiority or inferiority to a test hair bundle(s) uncoated with the sample.

Data set [7] is described as follows: Sensory evaluation on damaged hair after using organic ammonium salt. More on the design: species or system human. Particulars: compared to the compounds of the comparative examples. The procedure: as §2, with “damaged” for “healthy”, “as” for “as flexibility, finger-combing capability, texture,”, “hands),” for “hands), volume increase (visual evaluation),”, “cohesiveness,” for “cohesiveness, moist feeling,”, “smoothness” for “smoothness, non-stickiness (feeling by bare hands)”, “non-waviness,” for “gloss (visual evaluation),”

Data set [8] in a line: Water confinement property test (barrier property). To be noted: sample on filter paper over vial of water; 40° C., 25% RH, 24 hours. Format: physicochemical. The procedure: Next, 20.0 g of an ion-exchange water was put into a 40 mL pierce vial bottle (by AS ONE Corporation.), followed by removing an inner lid (rubber plug) of the pierce vial bottle, placing on the pierce vial bottle the filter paper to which each sample had been applied, and then plugging the bottle with an outer lid.
Further, Wm1, Wm2, Sm1 and Sm2 in the formula below respectively represent the following numerical values.
Wm1: Weight of ion-exchange water in vial before storage (using filter paper to which only ion-exchange water had been applied)
Wm2: Weight of ion-exchange water in vial after 24 hours (using filter paper to which only ion-exchange water had been applied)
Sm1: Weight of ion-exchange water in vial before storage (using filter paper to which sample had been applied)
Sm2: Weight of ion-exchange water in vial after 24 hours (using filter paper to which sample had been applied)

A short description of data set [9]: Permeability to skin (horny layer tape stripping method). Format: in vivo. To be noted: extraction liquid, an hour after application to the arm, HPLC. The procedure: Skin permeability was evaluated by a horny layer tape stripping method. […] A sample was applied to the arm and then left thereon for an hour before performing tape stripping on the horn by eight layers. An adhered substance on this tape was then extracted with an ion-exchange water over the course of 10 min, followed by filtrating an extraction liquid thus obtained with a 0.2 μm filter, and then quantifying, via HPLC, the amount of each of the compounds C20, C64 and C97 in each extraction liquid filtrated.

Data set [10] can be described thus: Stability of ascorbic acid-based compound (coloration). Format: physicochemical. The arrangement: key to Appearance (Visual evaluation) Immediately after preparatiom / Appearance (Visual evaluation) After 7 days 50° C. / Appearance (Visual evaluation) After 7 days Room temperature: ⊚: Colorless and transparent; ∘: Light yellow; Δ: Yellow; x: Brown to black. To be noted: 33 wt % aqueous solution. The procedure: With regard to a 33 wt/% aqueous solution of each of the compounds C46, C49 and C98 to C100 and water, a stability in an aqueous solution condition was visually evaluated. An evaluation method was such that there was prepared a 33 wt % aqueous solution of each of the compounds C46, C49 and C98 to C100, the aqueous solution was then left to stand still at room temperature or in a thermostatic bath of 50° C. for seven days; coloration before and after the still standing was visually confirmed. The evaluation criteria were as follows. • ⊚: Colorless and transparent • ∘: Light yellow • Δ: Yellow • x: Brown to black

In data set [1] (healthy hair immersed 60 min in 80 wt % aqueous solution), `CC(N)(CO)CO.O=C1O[C@H]([C@@H](O)CO)C(O)=C1O` [Compound B7] registered a Compound adhesion rate of 2.4%. Besides, the Post-test moisture rate in [1] (healthy hair immersed 60 min in 80 wt % aqueous solution, after 24 hours at 40° C., 35 to 40% RH, pre-test 7.6%) is recorded as 6.0%. In data set [1] (healthy hair, 80 wt % aqueous solution, 24 hours at 40° C., 35 to 40% RH), the “Rate of reduction in moisture” value was 21%. In addition, the “Sensory evaluation of healthy hair after shampoo agent (cohesiveness, moist feeling, gloss, smoothness, non-stickiness)” value in data set [2] is listed as “favorable”.

On to `CC(O)C(=O)[O-].[Na+]` (centres unmarked) [Compound B28, sodium lactate], for which, in data set [2], the “Sensory evaluation of healthy hair after shampoo agent (cohesiveness, moist feeling, gloss, smoothness, non-stickiness)” value is listed as “inferior in general”. The “Sensory evaluation of damaged hair after shampoo agent (cohesiveness, surface smoothness, waviness)” value in data set [3] is recorded as “inferior surface smoothness”. Further, in data set [4], the “Combing capability, cohesiveness and non-stickiness of healthy hair after conditioner” value is recorded as “poor hair cohesiveness”. Besides, the Surface resistance value in [5] was 2×10^8 Ω.

On to `CCCCC/C=C\C/C=C\CCCCCCCC(=O)OCC(N)(CO)CO` [Compound B31, 2-amino-2-hydroxymethyl-1,3-propanediol linoleate], for which the “Adherability to the healthy hair” value in data set [1] was “higher adherability”. In addition, the “Sensory evaluation on healthy hair (flexibility, finger-combing, texture, elasticity/resilience, volume, cohesiveness, moist feeling, smoothness, non-stickiness, gloss)” value in data set [6] was “superior”. Moreover, the “Sensory evaluation on damaged hair (elasticity/resilience, cohesiveness, surface smoothness, suppression of waviness)” value in [7] was “superior”. The “Water evaporation inhibition rate” value in [8] was 48.1%.

Turning to `CC(C)CCCCCCCCCCCCCCC(=O)OCC(C)(N)CO` (centres unmarked) [Compound B35, 2-amino-2-methyl-1,3-propanediol isostearate], the “Adherability to the healthy hair” value in data set [1] is recorded as “higher adherability”. Besides, the “Sensory evaluation on healthy hair (flexibility, finger-combing, texture, elasticity/resilience, volume, cohesiveness, moist feeling, smoothness, non-stickiness, gloss)” value in data set [6] is “superior”. Also, the “Sensory evaluation on damaged hair (elasticity/resilience, cohesiveness, surface smoothness, suppression of waviness)” value in [7] was “superior”.

As to `CC(O)C(=O)[O-].[K+]` (centres unmarked) [Compound C97, potassium lactate], the Compound concentration in data set [9] (Tape stripping layer 1) is 0.020 ml/L; in data set [9] (Tape stripping layer 2), 0.017 ml/L; in [9] (Tape stripping layer 3), 0.016 ml/L; in [9] (Tape stripping layer 4), 0.009 ml/L; in data set [9] (Tape stripping layer 5), 0.008 ml/L; in data set [9] (Tape stripping layer 6), 0.006 ml/L. Besides, the Compound concentration in [9] (Tape stripping layer 7) and in data set [9] (Tape stripping layer 8) was 0.006 ml/L throughout.

On to `O=C1O[C@H]([C@@H](O)CO)C(O)=C1O` [Compound C98, ascorbic acid], for which, in data set [10], the “Appearance (Visual evaluation) After 7 days 50° C.” value is “x”, the “Appearance (Visual evaluation) After 7 days Room temperature” value was “x” and the “Appearance (Visual evaluation) Immediately after preparatiom” value (from here on “Appearance … after preparatiom”) is “⊚”.

Turning to `O=C1O[C@H]([C@@H](O)CO)C(O)=C1O[C@H]1O[C@H](CO)[C@@H](O)[C@H](O)[C@H]1O` [Compound C99, ascorbic acid glucoside], in data set [10], the “Appearance (Visual evaluation) After 7 days 50° C.” value is given as “Δ~x”, the “Appearance (Visual evaluation) After 7 days Room temperature” value is “○” and the “Appearance … after preparatiom” value is recorded as “⊚”.

Regarding `O=C1O[C@H]([C@@H](O)CO)C([O-])=C1OP(=O)([O-])[O-].[Na+].[Na+].[Na+]` [Compound C100, sodium ascorbyl phosphate], in data set [10], the “Appearance (Visual evaluation) After 7 days 50° C.” value was “Δ~x”, the “Appearance (Visual evaluation) After 7 days Room temperature” value is on record as “○~Δ” and the “Appearance … after preparatiom” value was “⊚”.
